Values quoted from earlier work in patent publication US9035093B2 (Colgate-Palmolive Company, priority 2009, dated 2015).

Conditions: room temperature, natural partial pressure (3.5×10^−4 atmosphere)

maximum concentration of carbon dioxide in water: 12 µM
SMILES: O=C=O [Carbon dioxide]
